Results reported in PubChem BioAssay AID330 (DTP/NCI, 2004).
Several values for one entry are separate records, joined by “and”; a condition that tells them apart may be missing. Equal values may be shown once. Toxic doses and inconclusive results are not listed. The calls were made as follows: active = survival T/C of 150% or more; inactive = T/C below 125% in these data.

Tested on: P388 leukemia ip, CD2F1 mice, survival T/C
Assay: NCI In Vivo Anticancer Drug Screen. Data for tumor model P388 Leukemia (intraperitoneal) in CD2F1 (CDF1) mice
Conditions: endpoint: median survival time, higher = longer survival
Method in brief: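 Mice carrying the transplanted tumor received test compound or vehicle. Survival was recorded in each group, and the value is the treated-group measurement divided by that of the vehicle-treated control group.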

[1] = dose: 25.0 mg/kg/injection, schedule: Q01DX009 (ip), vehicle: saline with Tween-80
[2] = dose: 50.0 mg/kg/injection, schedule: Q01DX009 (ip), vehicle: saline with Tween-80
[3] = dose: 100.0 mg/kg/injection, schedule: Q01DX009 (ip), vehicle: saline with Tween-80
[4] = dose: 50.0 mg/kg/injection, schedule: Q01DX005 (ip), vehicle: saline with Tween-80
[5] = dose: 100.0 mg/kg/injection, schedule: Q01DX005 (ip), vehicle: saline with Tween-80
[6] = dose: 50.0 mg/kg/injection, schedule: Q01DX009 (ip), vehicle: Klucel (hydroxypropylcellulose) (HPC)
[7] = dose: 100.0 mg/kg/injection, schedule: Q01DX009 (ip), vehicle: Klucel (hydroxypropylcellulose) (HPC)
[8] = dose: 200.0 mg/kg/injection, schedule: Q01DX009 (ip), vehicle: Klucel (hydroxypropylcellulose) (HPC)

Measured: T/C

CC(O)C(NC(=O)c1ccc([N+](=O)[O-])cc1)C(=O)O (stereo not given)
inactive: dose: 50.0 mg/kg/injection, schedule: Q01DX005 (ip), vehicle: saline 105 % of control | dose: 100.0 mg/kg/injection, schedule: Q01DX005 (ip), vehicle: saline 102 % of control | dose: 200.0 mg/kg/injection, schedule: Q01DX005 (ip), vehicle: saline 91 % of control

CC(=O)OC1C(OC(C)=O)C2C(C)CC3OC(=O)C(C)C3CC2(C)C1OC(C)=O (stereo not given)
inactive: dose: 6.25 mg/kg/injection, schedule: Q01DX009 (ip), vehicle: saline 110 % of control | dose: 12.5 mg/kg/injection, schedule: Q01DX009 (ip), vehicle: saline 103 % of control | [1] 100 % of control (2×) and 123 % of control | dose: 25.0 mg/kg/injection, schedule: Q01DX009 (ip), vehicle: saline 113 % of control | [2] 100 % of control and 121 % of control and 97 % of control | [3] 103 % of control and 104 % of control and 93 % of control | dose: 200.0 mg/kg/injection, schedule: Q01DX009 (ip), vehicle: saline with Tween-80 96 % of control | dose: 400.0 mg/kg/injection, schedule: Q01DX009 (ip), vehicle: saline with Tween-80 96 % of control

Cc1ccc2occ(/C=N/NC(N)=S)c(=O)c2c1
inactive: [4] 90 % of control | [5] 97 % of control

O=c1cc(-c2ccccc2)nc(Sc2ccc([N+](=O)[O-])cc2[N+](=O)[O-])[nH]1
inactive: [6] 98 % of control | [7] 98 % of control | [8] 93 % of control

Clc1ccc(-c2nc(CSc3ccccn3)cs2)cc1
inactive: dose: 50.0 mg/kg/injection, schedule: Q01DX009 (ip), vehicle: saline 102 % of control | dose: 100.0 mg/kg/injection, schedule: Q01DX009 (ip), vehicle: saline 109 % of control | dose: 200.0 mg/kg/injection, schedule: Q01DX009 (ip), vehicle: saline 105 % of control

O=C1OCCC1(S)C(O)c1ccccc1 (stereo not given)
inactive: dose: 21.25 mg/kg/injection, schedule: Q01DX005 (ip), vehicle: acetone 103 % of control | dose: 42.5 mg/kg/injection, schedule: Q01DX005 (ip), vehicle: acetone 100 % of control | dose: 85.0 mg/kg/injection, schedule: Q01DX005 (ip), vehicle: acetone 103 % of control

Cc1nn(C(=O)c2ccncc2)c(C)c1N=Nc1cccc2ccccc12
inactive: [6] 96 % of control | [7] 99 % of control | [8] 96 % of control

O=C(OC1C(O)OC2COC(=O)c3cc(O)c(O)c(O)c3-c3c(cc(O)c(O)c3O)C(=O)OC2C1O)c1cc(O)c(O)c(O)c1 (stereo not given)
inactive: dose: 3.75 mg/kg/injection, schedule: Q01DX009 (ip), vehicle: saline with Tween-80 97 % of control | dose: 7.5 mg/kg/injection, schedule: Q01DX009 (ip), vehicle: saline with Tween-80 102 % of control | dose: 15.0 mg/kg/injection, schedule: Q01DX009 (ip), vehicle: saline with Tween-80 103 % of control

CCOC(=O)Nc1c(CC(C)(C)O)n[nH]c1C
inactive: [4] 103 % of control | [5] 100 % of control | dose: 200.0 mg/kg/injection, schedule: Q01DX005 (ip), vehicle: saline with Tween-80 100 % of control

Cc1ncc(C(=O)c2cc(Cl)ccc2O)cn1
inactive: dose: 100.0 mg/kg/injection, schedule: Q04DX003 (ip), vehicle: saline 100 % of control | dose: 200.0 mg/kg/injection, schedule: Q04DX003 (ip), vehicle: saline 110 % of control | dose: 400.0 mg/kg/injection, schedule: Q04DX003 (ip), vehicle: saline 100 % of control

Nc1nc(=S)c2ncn(C3OC(CO)CC3O)c2[nH]1 (stereo not given)
inactive: dose: 26.4 mg/kg/injection, schedule: Q04DX003 (ip), vehicle: saline 122 % of control | dose: 150.0 mg/kg/injection, schedule: Q04DX003 (ip), vehicle: saline 116 % of control

CC1(C)OC2C(COC(=O)Oc3ccccc3)OC(n3cnc4c(=S)nc[nH]c43)C2O1 (stereo not given)
inactive: [1] 95 % of control | dose: 25.0 mg/kg/injection, schedule: Q04DX003 (ip), vehicle: saline with Tween-80 105 % of control | [2] 95 % of control | dose: 50.0 mg/kg/injection, schedule: Q04DX003 (ip), vehicle: saline with Tween-80 110 % of control | [3] 95 % of control | dose: 100.0 mg/kg/injection, schedule: Q04DX003 (ip), vehicle: saline with Tween-80 100 % of control

[NH-]CC[N-]CCO.[NH-]CC[N-]CCO.[NH-]CC[N-]CCO.[Ni]
inactive: dose: 6.25 mg/kg/injection, schedule: Q01DX005 (ip), vehicle: saline 93 % of control | dose: 12.5 mg/kg/injection, schedule: Q01DX005 (ip), vehicle: saline 98 % of control | dose: 25.0 mg/kg/injection, schedule: Q01DX005 (ip), vehicle: saline 107 % of control
